# Measured values from ChEMBL document CHEMBL1201862, “PubChem BioAssay data set” (2004).
#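 Protocol summary: plate cells (96-well), add compound at 5 concentrations, incubate 48 h, interpolate endpoints linearly. Abbreviation: GI50, concentration required for 50% inhibition of growth.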 Calls of active or inactive are those of the source. Rule as the data show it: active = GI50 up to about 1.1 µM and inactive = higher.
# Tests used:
# Assay in all cases: NCI-60 cell line screen, 48 h
# [1] = tested on: 786-0
# [2] = tested on: A498
# [3] = tested on: A549
# [4] = tested on: ACHN
# [5] = tested on: BT-549
# [6] = tested on: CAKI-1
# [7] = tested on: CCRF-CEM
# [8] = tested on: COLO 205
# [9] = tested on: DU-145
# [10] = tested on: EKVX
# [11] = tested on: HCC 2998
# [12] = tested on: HCT-116
# [13] = tested on: HCT-15
# [14] = tested on: HL-60
# [15] = tested on: HOP-62
# [16] = tested on: HOP-92
# [17] = tested on: HT-29
# [18] = tested on: Hs-578T
# [19] = tested on: IGROV-1
# [20] = tested on: K562
# [21] = tested on: KM12
# [22] = tested on: LOX IMVI
# [23] = tested on: M14
# [24] = tested on: MCF7
# [25] = tested on: MDA-MB-435
# [26] = tested on: MDA-N
# [27] = tested on: MOLT-4
# [28] = tested on: Malme-3M
# [29] = tested on: NCI-H226
# [30] = tested on: NCI-H23
# [31] = tested on: NCI-H460
# [32] = tested on: NCI-H522
# [33] = tested on: NCI/ADR-RES
# [34] = tested on: OVCAR-3
# [35] = tested on: OVCAR-4
# [36] = tested on: OVCAR-5
# [37] = tested on: OVCAR-8
# [38] = tested on: PC-3
# [39] = tested on: RPMI-8226
# [40] = tested on: RXF 393
# [41] = tested on: SF-268
# [42] = tested on: SF-295
# [43] = tested on: SF-539
# [44] = tested on: SK-MEL-28
# [45] = tested on: SK-MEL-2
# [46] = tested on: SK-MEL-5
# [47] = tested on: SN12C
# [48] = tested on: SNB-19
# [49] = tested on: SNB-75
# [50] = tested on: SW-620
# [51] = tested on: T47D
# [52] = tested on: TK-10
# [53] = tested on: U-251
# [54] = tested on: UACC-257
# [55] = tested on: UACC-62
# [56] = tested on: UO-31
smiles,measurement,setting,value
Cc1cccc2c1C(=O)/C(=C/c1ccccc1C(=O)O)C2,GI50,[1],> 100 µM (inactive)
same,GI50,[2],> 100 µM (inactive)
same,GI50,[3],> 100 µM (inactive)
same,GI50,[4],> 100 µM (inactive)
same,GI50,[5],> 100 µM (inactive)
same,GI50,[6],> 100 µM (inactive)
same,GI50,[7],> 100 µM (inactive)
same,GI50,[8],> 100 µM (inactive)
same,GI50,[9],> 100 µM (inactive)
same,GI50,[10],66.8 µM (inactive)
same,GI50,[11],> 100 µM (inactive)
same,GI50,[12],98.6 µM (inactive)
same,GI50,[13],> 100 µM
same,GI50,[14],> 100 µM (inactive)
same,GI50,[15],> 100 µM (inactive)
same,GI50,[16],> 100 µM (inactive)
same,GI50,[17],> 100 µM (inactive)
same,GI50,[18],> 100 µM (inactive)
same,GI50,[19],> 100 µM (inactive)
same,GI50,[20],> 100 µM (inactive)
same,GI50,[21],> 100 µM (inactive)
same,GI50,[22],> 100 µM (inactive)
same,GI50,[23],> 100 µM (inactive)
same,GI50,[24],> 100 µM (inactive)
same,GI50,[25],> 100 µM (inactive)
same,GI50,[26],> 100 µM (inactive)
same,GI50,[27],> 100 µM (inactive)
same,GI50,[28],> 100 µM (inactive)
same,GI50,[29],98.4 µM (inactive)
same,GI50,[30],> 100 µM (inactive)
same,GI50,[31],> 100 µM (inactive)
same,GI50,[32],> 100 µM (inactive)
same,GI50,[33],> 100 µM (inactive)
same,GI50,[34],> 100 µM (inactive)
same,GI50,[35],> 100 µM (inactive)
same,GI50,[36],> 100 µM (inactive)
same,GI50,[37],> 100 µM (inactive)
same,GI50,[38],> 100 µM (inactive)
same,GI50,[39],32.8 µM (inactive)
same,GI50,[40],> 100 µM (inactive)
same,GI50,[41],> 100 µM (inactive)
same,GI50,[42],> 100 µM (inactive)
same,GI50,[43],> 100 µM (inactive)
same,GI50,[44],> 100 µM (inactive)
same,GI50,[45],> 100 µM (inactive)
same,GI50,[46],37.5 µM (inactive)
same,GI50,[47],> 100 µM (inactive)
same,GI50,[48],> 100 µM (inactive)
same,GI50,[49],85.3 µM (inactive)
same,GI50,[50],> 100 µM (inactive)
same,GI50,[51],> 100 µM (inactive)
same,GI50,[52],> 100 µM (inactive)
same,GI50,[53],> 100 µM (inactive)
same,GI50,[54],> 100 µM (inactive)
same,GI50,[55],> 100 µM (inactive)
same,GI50,[56],> 100 µM (inactive)
